# From patent US20210228675A1, “HYPERTROPHIC SCAR INHIBITING COMPOSITION” (FUKUOKA UNIVERSITY, priority 2018, published 2021)
# Like-named read-outs stand apart in the source and are kept apart here. Non-standard residues stand in square brackets, D forms with d. Residues, ends and D or L forms follow the SMILES beside them. Hyp = O=C(O)[C@@H]1C[C@@H](O)CN1
# What was measured:
# [1] = Transfer of Pro-Hyp in blood after administration (LC-MS/MS); type: in vivo, C57 BL/6N mice; conditions: for Tmax: female, C57 BL/6N, mouse, blood, mice without wound, read-out: time at which blood concentration of Pro-Hyp reached a peak (converted)
# Procedure: To C57 BL/6N mice (8 to 10 weeks of age, female) (N=4, per group) in which no wound site is formed, a physiological saline solution (500 nmol/200 μL) of the dipeptide consisting of the amino acid sequence of Pro-Hyp (which may be hereinafter referred to as simply “Pro-Hyp”) is administered intraperitoneally by injection (single administration) or a physiological saline solution (2500 nmol/200 μL) of Pro-Hyp was orally administered using a probe (single administration). After administration, blood was collected over time and Pro-Hyp occurred in blood was measured by LC-MS/MS method. The measurement conditions of LC-MS/MS method were as follows.
# Collected blood was 2 times diluted in physiological saline and then centrifugation was performed under conditions at 20° C., 500×g, for 15 minutes. To the supernatant recovered after the centrifugation, 3 volumes of 100% ethanol were added. The supernatant to which 100% ethanol had been added was centrifuged at 20° C., 13000 rpm, for 15 minutes to perform deproteinization. Subsequently, the deproteinized sample was 10 times diluted in 50 mM ammonium bicarbonate and analyzed by LC-MS/MS. For the LC conditions, the analysis was conducted using CAPCELL PAK C1 UG120 10 mm×I.D. 2.0 mm (OSAKA SODA CO., LTD.) as a guard column and the column Hypersil Gold PFP 150 mm×I.D. 2.1 mm, 5 μm (manufactured by Thermo Fisher Scientific, Inc.). The analysis conditions were Mobile phase A MeOH, Mobile phase B a 2% formic acid aqueous solution containing 2 mM ammonium acetate, injection volume 5 μL, and gradient of Table 1 below.
# The MS/MS was conducted using a tandem mass spectrometer (TSQ Vantage (manufactured by Thermo Fisher Scientific, Inc.)) under conditions of Method of ionization: Positive ESI, Spray voltage: 3000 V, Vaporizer: 300° C., Sheath gas: 30, Aux gas: 15, Capillary temperature: 250° C., MRM conditions: Parent Mass 229.1, Product Mass 70, Collision energy: 29 ev, S-Lens: 68.
# Moreover, in the intraperitoneal administration, the Pro-Hyp concentration reached very high since it transferred in blood without gastrointestinal absorption. […] The C57 BL/6N mice in which no wound site was formed were used in this experiment, it is considered that a similar result is also obtained with Model-1 mice and Model-2 mice generated from the same line of mice.
# [2] = system: granulation tissue in wound site of abdominal wall circular incision model (Model-2) mice; assay: Formation of granulation tissue by administration of various polypeptides in Model-2 mice; type: in vivo, C57 BL/6N mice; conditions: Day 7; i.p. once a day for 7 days, doses of Table 7; control sparse; FIG. 9
# Procedure: In this Example, aiming to examine granulation tissue formed in the peritoneum layer under tension, a novel model (Model-2) of granulation tissue formation that occurs between the peritoneum layers, which are under the minimal effect of the healing response from the skin layer and under direct influence of the tension of muscles, was generated in the following procedures. Female C57 BL/6N mice at 8 to 10 weeks of age were used. Anesthesia was introduced by administering 200 μL per animal (0.065 mg/g weight) of the anesthetic Somnopentyl (manufactured by Shering-Plough Corporation) to the peritoneal cavity. After the introduction of anesthesia, abdominal skin was cut open 1.5 cm along the midline using scissors for operations. […] Subsequently, the center part of the abdominal wall was picked up with round tip tweezers with an outside diameter of 3 mm, and the tissue in the central part of the abdominal wall was completely removed surgically in a circle with curved tip micro-operation scissors (Bottom panel in FIG. 1). After the incision, the positions 0.25 cm apart from the upper end and 0.25 cm apart from the bottom end of the incised skin (wound site) were sewed up to remove the tension of the skin. Subsequently, the skin was wrapped with Tegaderm and an underwear-shaped silicon protector was further put on to prevent the self-harm of the wound site. […]
# [3] = oral, single administration 2500 nmol/200 μL
Compound,"Tmax ([1]; ip, intraperitoneal, single administration 500 nmol/200 μL)","Tmax [1, 3]","time at which blood concentration decreased to a baseline level ([1]; intraperitoneal, single administration 500 nmol/200 μL)","time at which blood concentration decreased to a baseline level [1, 3]","collagen fibers in granulation tissue, Masson trichrome stain [2]"
O=C(O)[C@@H]1C[C@@H](O)CN1C(=O)[C@@H]1CCCN1 [Pro-Hyp] (H-Pro-[Hyp]-OH; N-terminus and C-terminus assumed),15 min,15 min,3 h,3 h,
Hyp-Gly,,,,,the collagen fibers were dense and matured as the tissue
